Source: patent publication US4929736A, “Latent isocynate derivatives useful for deactivating enzymes” (Board of Trustees of the Wichita State University, priority 1986, dated 1990)
“Also recorded” adds a separate entry of the source. Like-named read-outs stand apart in the source and are kept apart here. Each block holds one molecule with its values, some of them ahead of it.

Columns and labels:
[1] = biological target: T1, Human leukocyte elastase (HLE) (Homo sapiens, UniProt P08246); experiment: Spectrophotometric assay of HLE inactivation (in vitro); type: biochemical
T1 construct: purchased Elastin Products, St. Louis, Mo
T1 sequence (P08246 30-267): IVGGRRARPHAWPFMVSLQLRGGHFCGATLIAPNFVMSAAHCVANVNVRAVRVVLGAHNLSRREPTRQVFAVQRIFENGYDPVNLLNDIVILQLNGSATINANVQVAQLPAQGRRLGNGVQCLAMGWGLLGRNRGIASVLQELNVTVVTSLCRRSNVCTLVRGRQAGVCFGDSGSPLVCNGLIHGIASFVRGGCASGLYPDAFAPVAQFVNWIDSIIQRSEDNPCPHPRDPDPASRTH
Procedure: The appropriate amount of inhibitor in acetonitrile was mixed with PPE in phosphate buffer solution and placed in a constant temperature bath. Aliquots were withdrawn at different time intervals and transferred to a cuvette containing 100 uL of substrate, 140 uL of acetonitrile, and 2 mL of phosphate buffer, pH 6.5. After incubating for 30 seconds, the absorbance change was monitored for two minutes at 347.5 nm. […] Controlled reactions for 100% PPE activity were run in the presence of acetonitrile. A similar procedure was followed for HLE.
(§1) The reaction of an irreversible inhibitor with PPE and HLE may be illustrated by the scheme shown below: [drawing 5] where EI is the noncovalently bound enzyme-inactivator complex and E-I is the final product with the inhibitor covalently bound to the enzyme. The kinetics data were analyzed according to known procedures. The apparent pseudo-first-order inactivation rate constants were determined from the slopes of semilogarithmic plots of enzymatic activity remaining versus time using the following equation: [formula] where Et /EO is the amount of active enzyme remaining after time "t".
The assay procedure used was the procedure identified relative to the tests above in Table I.
(kobsd) were determined by plotting in [E]t /[E]o vs time.

[2] = biological target: Porcine pancreatic elastase (PPE) (Sus scrofa, UniProt P00772); experiment: Spectrophotometric assay of PPE inactivation (in vitro); type: biochemical; details: for kinact/KI: Table I azolides, read-out: Porcine pancreatic elastase k3 /Ki
Chain of Porcine pancreatic elastase (PPE) (P00772 27-266): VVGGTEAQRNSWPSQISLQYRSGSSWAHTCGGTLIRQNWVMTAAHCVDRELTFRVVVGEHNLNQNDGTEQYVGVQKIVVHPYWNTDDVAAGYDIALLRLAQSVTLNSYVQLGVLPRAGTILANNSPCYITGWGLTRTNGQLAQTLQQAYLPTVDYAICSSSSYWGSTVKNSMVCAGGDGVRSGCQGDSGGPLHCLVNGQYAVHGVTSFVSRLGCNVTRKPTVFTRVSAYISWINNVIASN
Procedure: The enzyme assays used to evaluate the potency of the inhibitors in vitro were performed as follows: PPE was assayed spectrophotometrically at 347.5 nm with (tert-butoxycarbonyl)-alanyl-p-nitrophenol in 0.05 M phosphate buffer, pH 6.5, 25° C., or by using succinyl-L-trialanyl-p-nitroanilide in 0.1 M Tris buffer, pH 8.0, at 410 nm. HLE was assayed spectrophotometrically at 410 nm with succinyl-L-trialanyl-p-nitroanilide or methoxy succinyl ala-ala-pro-val-p-nitroanilide (As describe by K. Wakajima et al in the J. Biol. Chem, 254, 4027-4032 (1979) and T. Teshima et al, in J. Biol. Chem 257, 5085-5091 (1982). The potency of an inhibitor is determined by obtaining a kinetic determination of the bimolecular rate constant K3 /Ki (or Robsd /[I]). The HLE used in these studies may be obtained from Elastin Products, St. Louis, Mo.) in 0.1 M Tris buffer, pH 8.0.
The appropriate amount of inhibitor in acetonitrile was mixed with PPE in phosphate buffer solution and placed in a constant temperature bath. Aliquots were withdrawn at different time intervals and transferred to a cuvette containing 100 uL of substrate, 140 uL of acetonitrile, and 2 mL of phosphate buffer, pH 6.5. After incubating for 30 seconds, the absorbance change was monitored for two minutes at 347.5 nm. The inhibitor-to-enzyme ratios varied between 50 and 200, and the incubation intervals were shortened or lengthened depending upon the potency of the inhibitor. Controlled reactions for 100% PPE activity were run in the presence of acetonitrile. A similar procedure was followed for HLE.
as §1, with “"t". Inhibition is generally expressed in terms of k3 /Ki, M^-1 s^-1, wherein Ki is the disassociation constant for the enzyme inhibitor complex and k3 is a limiting rate constant for the irreversible loss of enzymatic activity.” for “"t".”
Table I below illustrates the inhibition found with assays of nine amino-acid-derived azolides against PPE and HLE.

PPE = details: cited from earlier work; for Irreversible inhibition of PPE (in words): 183rd ACS National Meeting, 1982
alpha-Chymotrypsin = alpha-Chymotrypsin (Bos taurus, UniProt P00766); experiment: Inactivation of chymotrypsin; type: biochemical; details: for Inhibition of chymotrypsin (in words): comparable conditions
[3] = Inactivation of S-ethylcysteine sulfonate salt by oxidants / hydrolysis in buffer; type: physicochemical
Excerpt: In addition, compound 3, Table VI, was exposed to oxidants in vitro and the rates of its inactivation with chloramine-T and H2 O2 compared to buffer alone are summarized in Table VII below. […] The observed rates of inhibitor inactivation are 6 to 12 fold smaller than the rate at which the inhibitor inactivates the enzyme.

[4] = Table I azolides, read-out: Human leukocyte elastase k3 /Ki

- kinact/KI [1, 4]: 193 M⁻¹ s⁻¹
- Inhibition of HLE (in words) ([1]; listed as L-valine azolide): highly effective
- kinact/KI [2]: 2.8 M⁻¹ s⁻¹
SMILES: COC(=O)[C@@H](NC(=O)n1ccnc1)C(C)C [Compound 3, Table I]
- Irreversible inhibition of PPE (in words) (PPE): Particularly active

- kinact/KI ([1]; Table II monopotassium sulfonate salts, read-out: k2 /Ki (HLE)): 860 M⁻¹ s⁻¹
- Inhibition of chymotrypsin (in words) (alpha-Chymotrypsin): no effect
- Inhibition of PPE (in words) [2]: no effect
SMILES: CCC[C@H](NC(=O)S(=O)(=O)O)C(=O)OC [Compound 4, Table II]
- Inhibition of HLE (in words) ([1]; listed as L-norvaline sulfonate salt): very potent inhibitors; also recorded: effective inhibitors

- Inhibition of HLE (in words) [1]: highly effective
- kinact/KI [2]: 0.5 M⁻¹ s⁻¹
SMILES: COC(=O)[C@H](CC(C)C)NC(=O)n1ccnc1 [Compound 7, Table I]

- kinact/KI [1, 4]: 167 M⁻¹ s⁻¹
- kinact/KI [2]: 2.2 M⁻¹ s⁻¹
SMILES: CCCCC(NC(=O)n1ccnc1)C(=O)OC (racemic) [Compound 9, Table I]

- kinact/KI [2]: 1 M⁻¹ s⁻¹
SMILES: CCC(C)[C@H](NC(=O)n1ccnc1)C(=O)OC (stereo partly shown) [Compound 8, Table I]

- Inhibition of PPE (in words) [2]: little for PPE
SMILES: CCCCC(NC(=O)n1ccnc1)C(=O)OC (stereo not shown) [Compound 9]
- Inhibition of HLE (in words) [1]: effective inhibitors; also recorded: avidity for HLE

- kinact/KI ([1]; Table VI, sulfur-containing amino acid esters, read-out: kobsd /[I], inhibition of HLE): 1800 M⁻¹ s⁻¹
- kobsd, inactivation of inhibitor ([3]; Chloramine T (0.06 mM), first line): 6.6 × 10^-4 sec ^-1
- kobsd, inactivation of inhibitor ([3]; Chloramine T (0.06 mM), second line): 3.2 × 10^-3 sec ^-1
- kobsd, inactivation of inhibitor ([3]; H2O2 (1 mM)): 1.2 × 10^-3 sec ^-1
- kobsd, inactivation of inhibitor ([3]; Triss buffer, pH 8.0 (0.2 M)): 5.8 × 10^-4 sec ^-1
- half life of hydrolysis in buffer solution ([3]; buffer, pH 8.0): twenty
- half life with addition of oxidants (in words) ([3]; chloramine-T, H2O2): shorter half lives
SMILES: CCSC[C@H](NC(=O)S(=O)(=O)O)C(=O)OC [Compound 3, Table VI]
- scavenging of oxidants (in words) ([3]; chloramine-T and H2O2): scavenged by the inhibitor in a time dependent and efficient fashion

- Inhibition of HLE (in words) [1]: remarkable specificity and high potency
- Inhibition of HLE (in words) ([1]; listed as methionine azolide): highly effective
- Inhibition of PPE (in words) [2]: unaffected
SMILES: COC(=O)[C@H](CCSC)NC(=O)n1ccnc1 [N-(1H-imidazol-1-ylcarbonyl)-methionine methyl ester]

- Inhibition of HLE (in words) [1]: no effect
- Inhibition of PPE (in words) [2]: no effect
SMILES: COC(=O)[C@H](NC(=O)n1ccnc1)C(C)C [Compound 4]

The next lines start with the molecule.

SMILES: COC(=O)CNC(=O)n1ccnc1 [Compound 1]
- Inhibition of HLE (in words) [1]: failed to deactivate
- Inhibition of PPE (in words) [2]: failed to deactivate

SMILES: CCCC(NC(=O)n1ccnc1)C(=O)OC (racemic) [DL-norvaline methyl ester derivative]
- Irreversible inhibition of PPE (in words) (PPE): Particularly active

SMILES: CCC[C@H](NC(=O)n1ccnc1)C(=O)OC [Compound 5]
- Inhibition of HLE (in words) [1]: effective inhibitors; also recorded: avidity for HLE
- kinact/KI [1, 4]: 500 M⁻¹ s⁻¹
- Inhibition of PPE (in words) [2]: little for PPE
- kinact/KI [2]: 6.3 M⁻¹ s⁻¹

SMILES: COC(=O)[C@H](NC(=O)n1ccnc1)C(C)C [Compound 4, Table I]
- Irreversible inhibition of PPE (in words) (PPE): marginal activity

SMILES: COC(=O)[C@H](C)NC(=O)n1ccnc1 [Compound 2]
- Inhibition of HLE (in words) [1]: marginal inhibitory activity
- Inhibition of PPE (in words) [2]: marginal inhibitory activity

SMILES: CCCCNC(=O)n1ccnc1 [n-butyl derivative]
- Inhibition of PPE (in words) (PPE; Biochem. Biophys. Res. Commun. report (1980)): particularly capable of binding to the active site of the enzyme

SMILES: CS(=O)(=O)ON1C(=O)CC(Cc2ccccc2)C1=O (racemic) [BENZYL, OSO2 CH3, (dl)-3-Benzyl-N-(methanesulfonyloxy) succinimide]
- kinact/KI ([1]; Table V, succinimide derivatives, read-out: kobsd /[I], inhibition of leukocyte elastase): 1170 M⁻¹ s⁻¹
- kinact/KI (alpha-Chymotrypsin; Table V footnote a, read-out: kobsd /[I], alpha-Chymotrypsin): 9000 M⁻¹ s⁻¹
- Inhibition of chymotrypsin (in words) (alpha-Chymotrypsin): efficiently inactivated
- Inhibition of PPE (in words) [2]: unaffected

SMILES: CCOC(=O)CNC(=O)n1ccnc1 [glycine ethel ester derivative]
- Irreversible inhibition of PPE (in words) (PPE): inactive

SMILES: COC(=O)[C@@H](NC(=O)n1ccnc1)C(C)C [Compound 3]
- Inhibition of HLE (in words) [1]: excellent inhibitor; also recorded: avidity for HLE
- Inhibition of PPE (in words) [2]: poor inhibitor; also recorded: little for PPE
